The values that follow come from patent publication US9394291B2, “Benzoxazinone amides as mineralocorticoid receptor modulators” (AstraZeneca AB, priority 2014, dated 2016).

Assay [1] deals with T1, human MR LBD (Homo sapiens (Human), UniProt P08235). Nature of the assay: Mineralocorticoid Binding, Test A1 (SPA beads, 3H-aldosterone displacement). The note with it: displacement of 5 nM 3H-aldosterone, MBP-MR LBD/P23 lysate.
Assay [2] deals with T2, MR (UAS-MR-bla HEK293 cells) (Homo sapiens, UniProt P08235). Nature of the assay: cell-based.
T2 sequence (P08235 whole entry, looked up): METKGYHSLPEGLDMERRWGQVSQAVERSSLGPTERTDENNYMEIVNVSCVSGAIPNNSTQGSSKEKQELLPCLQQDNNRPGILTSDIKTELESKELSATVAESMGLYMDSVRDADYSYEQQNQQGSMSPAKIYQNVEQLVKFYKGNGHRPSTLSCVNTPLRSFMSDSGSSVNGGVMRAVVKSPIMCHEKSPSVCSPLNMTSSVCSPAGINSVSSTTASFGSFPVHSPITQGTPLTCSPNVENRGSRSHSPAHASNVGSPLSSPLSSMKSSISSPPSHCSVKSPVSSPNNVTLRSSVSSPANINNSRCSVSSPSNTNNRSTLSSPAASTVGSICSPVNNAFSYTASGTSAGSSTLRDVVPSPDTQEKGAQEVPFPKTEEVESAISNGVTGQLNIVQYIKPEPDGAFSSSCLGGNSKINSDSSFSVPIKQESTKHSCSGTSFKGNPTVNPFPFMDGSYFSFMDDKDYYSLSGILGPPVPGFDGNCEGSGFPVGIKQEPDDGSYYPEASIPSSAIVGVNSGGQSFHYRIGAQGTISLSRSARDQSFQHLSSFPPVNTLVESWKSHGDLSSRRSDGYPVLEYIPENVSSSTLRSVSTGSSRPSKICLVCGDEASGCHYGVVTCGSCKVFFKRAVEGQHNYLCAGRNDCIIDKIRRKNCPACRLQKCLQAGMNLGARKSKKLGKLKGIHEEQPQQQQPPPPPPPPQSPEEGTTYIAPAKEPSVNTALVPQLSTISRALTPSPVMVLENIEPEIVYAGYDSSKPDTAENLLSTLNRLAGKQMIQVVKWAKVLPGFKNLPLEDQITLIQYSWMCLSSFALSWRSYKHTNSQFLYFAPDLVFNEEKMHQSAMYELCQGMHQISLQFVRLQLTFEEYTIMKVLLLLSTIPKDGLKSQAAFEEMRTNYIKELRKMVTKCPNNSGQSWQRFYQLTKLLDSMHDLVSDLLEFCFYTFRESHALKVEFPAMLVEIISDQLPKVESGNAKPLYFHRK
Assay [3] deals with T2, MR (UAS-MR-bla HEK293 cells). As to the kind of experiment: Mineralocorticoid Cellular Reporter Gene Assay, Test B1 (0.25 nM aldosterone).
The target in assay [4] is T1, human MR LBD. The following applies: read-out: Test A2 IC50; displacement of 5 nM 3H-aldosterone, MBP-MR LBD/P23 lysate, Imaging beads.
Protocol: In order to identify binding to the human MR LBD a scintillation proximity assay (SPA) was adapted to the 384-well format. The MR-LBD (amino acids T729-K985) was expressed as N-terminal fusion with maltose binding protein in Hi5 insect cells by co-infection with recombinant MBP-MR LBD and P23 baculoviruses and crude protein lysate was used in the assay.
Briefly, in Test A1 the assay was run in 384 well format in 10 mM Tris-HCl, pH 7.5, 0.5 mM EDTA 20 mM NaMoO4, 0.1 mM DTT and 10% glycerol at rt. Compounds were tested in a 7 (Test A1) or 10 (Test A2) concentration response curve ranging from 10 nM to 10 μM (Test A1) or 1 nM to 37 μM (Test A2). Compounds were spotted at the bottom of a well of a 384-well PE Opti-Plate to yield final DMSO concentrations in the assay of 2%. Pre-made MBP-MR/P23 lysate: ^3H-aldosterone mix (final assay concentration 7 μg/mL MBP-MR LBD/P23 lysate; 5 nM aldosterone) was added onto the top of the spotted compound and preincubated for 1 h at RT. […] The inhibition of the scintillation signal by displacement of the bound ^3H-aldosterone by test compounds is measured by scintillation counting using a Microbeta Trilux (Wallac) (Test A1) or a by CCD camera detection using a LEADseeker (PerkinElmer) (Test A2).

Each structure is given as a SMILES string. Like-named read-outs stand apart in the source and are kept apart here.

T1 sequence (P08235 729-984 limits assumed): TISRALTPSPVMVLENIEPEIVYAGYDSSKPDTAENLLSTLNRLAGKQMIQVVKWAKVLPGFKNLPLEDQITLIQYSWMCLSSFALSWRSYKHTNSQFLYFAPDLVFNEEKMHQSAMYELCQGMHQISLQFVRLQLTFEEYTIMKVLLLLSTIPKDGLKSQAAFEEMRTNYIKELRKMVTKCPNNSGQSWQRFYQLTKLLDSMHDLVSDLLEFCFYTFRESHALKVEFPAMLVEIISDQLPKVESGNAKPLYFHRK

In the case of `NC(=O)CC1COc2ccccc2N1C(=O)c1ccc2c(c1)NC(=O)CO2` (stereo not shown) [Example 1], the IC50 on human MR LBD [1] was found to be 1400 nM; in assay [2] it was 620 nM; in assay [3], 2100 nM; on human MR LBD [4], 2900 nM.

On to `CNC(=O)C[C@@H]1COc2cc(F)ccc2N1C(=O)c1ccc2c(c1)NC(=O)CO2` [Example 4b, 2-{(3R)-7-Fluoro-4-[(3-oxo-3,4-dihydro-2H-1,4-benzoxazin-6-yl)carbonyl]-3,4-dihydro-2H-1,4-benzoxazin-3-yl}-N-methylacetamide], for which the inhibition at 100 µM in assay [3] (HEK293, read-out: Test B1, % at 100 μM) turned out to be 35%.

As for `NC(=O)C[C@H]1COc2cc(Br)ccc2N1C(=O)c1ccc2c(c1)NC(=O)CO2` [Example 7, 2-{(3S)-7-Bromo-4-[(3-oxo-3,4-dihydro-2H-1,4-benzoxazin-6-yl)carbonyl]-3,4-dihydro-2H-1,4-benzoxazin-3-yl}acetamide], the IC50 was determined as 9.5 nM on human MR LBD [1] and 45 nM in assay [3].
